This note sets out measurements from PMC8819633 (Journal of medicinal chemistry, 2021).

Experiment [1] relates to total AKT (T-AKT) and phosphorylated AKT (P-AKT (S473)). Briefly: Western blot of AKT degradation in BT474 cells. Conditions: for T-AKT and P-AKT protein degradation (western blot): 24 h, 1, 5 and 10 μM (12-13: 1, 3 and 10 μM); for T-AKT and P-AKT degradation: 1 μM; for T-AKT and P-AKT degradation / extent of T-AKT degradation in concentration-response / T-AKT protein level (western blot): 24 h; for extent of T-AKT degradation in concentration-response: indicated concentrations; for T-AKT protein level (western blot): controls at 1 μM. Type of experiment: cell-based, human. On the technique in general: In western blotting, separated proteins are transferred to a membrane and probed.

Experiment [2] relates to P-PRAS40 (T246) and P-S6 (S240/244). Briefly: Western blot of downstream signaling inhibition in BT474 cells. The experiment is classed as cell-based, human. Particulars: 24 h, compared with GDC-0068 (1 μM).

For “3-(((S)-2-(4-Chlorophenyl)-3-(4-((5R,7R)-7-hydroxy-5-methyl-6,7-dihydro-5H-cyclopenta[d]pyrimidin-4-yl)piperazin-1-yl)-3-oxopropyl)amino)-N-(2-(2-((2-(2,6-dioxopiperidin-3-yl)-1,3-dioxoisoindolin-4-yl)amino)ethoxy)ethyl)propenamide [Compound 14]”, the “T-AKT and P-AKT protein degradation (western blot)” value (shortened to “T-AKT and P-AKT protein degradation”) in experiment [1] is “not very effective at all concentrations tested”.
As to “3-(((S)-2-(4-Chlorophenyl)-3-(4-((5R,7R)-7-hydroxy-5-methyl-6,7-dihydro-5H-cyclopenta[d]pyrimidin-4-yl)piperazin-1-yl)-3-oxopropyl)amino)-N-(2-((2-(2,6-dioxopiperidin-3-yl)-1,3-dioxoisoindolin-4-yl)amino)ethyl)propenamide [Compound 19]”, in experiment [1], the “T-AKT and P-AKT protein degradation” value is on record as “marginally effective in inducing AKT degradation at 1–10 μM”.
The same measure, in the same setting: for “3-(((S)-2-(4-Chlorophenyl)-3-(4-((5R,7R)-7-hydroxy-5-methyl-6,7-dihydro-5H-cyclopenta[d]pyrimidin-4-yl)piperazin-1-yl)-3-oxopropyl)amino)-N-(3-((2-(2,6-dioxopiperidin-3-yl)-1,3-dioxoisoindolin-4-yl)amino)propyl)propenamide [Compound 20]” the value was “marginally effective in inducing AKT degradation at 1–10 μM”.
Consider “3-(((S)-2-(4-Chlorophenyl)-3-(4-((5R,7R)-7-hydroxy-5-methyl-6,7-dihydro-5H-cyclopenta[d]pyrimidin-4-yl)piperazin-1-yl)-3-oxopropyl)amino)-N-(4-((2-(2,6-dioxopiperidin-3-yl)-1,3-dioxoisoindolin-4-yl)amino)butyl)propenamide [Compound 21]”, for which the “T-AKT and P-AKT protein degradation” value in experiment [1] is on record as “marginally effective in inducing AKT degradation at 1–10 μM”.
“3-(((S)-2-(4-Chlorophenyl)-3-(4-((5R,7R)-7-hydroxy-5-methyl-6,7-dihydro-5H-cyclopenta[d]pyrimidin-4-yl)piperazin-1-yl)-3-oxopropyl)amino)-N-(5-((2-(2,6-dioxopiperidin-3-yl)-1,3-dioxoisoindolin-4-yl)amino)pentyl)propenamide [Compound 22]”: the “T-AKT and P-AKT protein degradation” value in experiment [1] was “marginally effective in inducing AKT degradation at 1–10 μM”.
Consider “3-(((S)-2-(4-Chlorophenyl)-3-(4-((5R,7R)-7-hydroxy-5-methyl-6,7-dihydro-5H-cyclopenta[d]pyrimidin-4-yl)piperazin-1-yl)-3-oxopropyl)amino)-N-(6-((2-(2,6-dioxopiperidin-3-yl)-1,3-dioxoisoindolin-4-yl)amino)hexyl)propenamide [Compound 23]”, for which, in experiment [1], the “T-AKT and P-AKT protein degradation” value is “highly effective in reducing T-AKT and P-AKT protein levels”.
For the compound “3-(((S)-2-(4-Chlorophenyl)-3-(4-((5R,7R)-7-hydroxy-5-methyl-6,7-dihydro-5H-cyclopenta[d]pyrimidin-4-yl)piperazin-1-yl)-3-oxopropyl)amino)-N-(7-((2-(2,6-dioxopiperidin-3-yl)-1,3-dioxoisoindolin-4-yl)amino)heptyl)propenamide [Compound 24]”, the “T-AKT and P-AKT protein degradation” value in experiment [1] is “highly effective in reducing T-AKT and P-AKT protein levels”.
On to “3-(((S)-2-(4-Chlorophenyl)-3-(4-((5R,7R)-7-hydroxy-5-methyl-6,7-dihydro-5H-cyclopenta[d]pyrimidin-4-yl)piperazin-1-yl)-3-oxopropyl)amino)-N-(8-((2-(2,6-dioxopiperidin-3-yl)-1,3-dioxoisoindolin-4-yl)oxy)octyl)propenamide [Compound 29]”, for which, in experiment [1], the “T-AKT and P-AKT degradation” value was above 95%; the “T-AKT and P-AKT protein degradation” value is “maintained the excellent AKT degradation”. The “inhibition of downstream signaling, P-PRAS40 and P-S6” value (shortened to “inhibition … P-PRAS40 and P-S6”) in experiment [2] is “maintained the excellent AKT degradation and downstream signaling inhibition effects”.
Consider “3-(((S)-2-(4-Chlorophenyl)-3-(4-((5R,7R)-7-hydroxy-5-methyl-6,7-dihydro-5H-cyclopenta[d]pyrimidin-4-yl)piperazin-1-yl)-3-oxopropyl)amino)-N-(8-((2-(2,6-dioxopiperidin-3-yl)-1-oxoisoindolin-4-yl)amino)octyl)propenamide [Compound 28]”, for which the “T-AKT and P-AKT protein degradation” value in experiment [1] was “completely abolished AKT degradation activity”.
Regarding “3-(((S)-2-(4-Chlorophenyl)-3-(4-((5R,7R)-7-hydroxy-5-methyl-6,7-dihydro-5H-cyclopenta[d]pyrimidin-4-yl)piperazin-1-yl)-3-oxopropyl)amino)-N-(9-(2-(2,6-dioxopiperidin-3-yl)-1,3-dioxoisoindolin-4-yl)nonyl)propenamide [Compound 27]”, in experiment [1], the “T-AKT and P-AKT degradation” value is given as above 95%; the “T-AKT and P-AKT protein degradation” value is given as “maintained the excellent AKT degradation”. In addition, the “inhibition … P-PRAS40 and P-S6” value in experiment [2] is “maintained the excellent AKT degradation and downstream signaling inhibition effects”.
In the case of `Cc1ncsc1-c1ccc(CNC(=O)[C@@H]2C[C@@H](O)CN2C(=O)[C@@H](NC(=O)COCCNC(=O)CCNC[C@@H](C(=O)N2CCN(c3ncnc4c3[C@H](C)C[C@H]4O)CC2)c2ccc(Cl)cc2)C(C)(C)C)cc1` [Compound 3, (2S,4R)-1-((2S,15S)-2-(tert-Butyl)-15-(4-chlorophenyl)-16-(4-((5R,7R)-7-hydroxy-5-methyl-6,7-dihydro-5H-cyclopenta[d]-pyrimidin-4-yl)piperazin-1-yl)-4,10,16-trioxo-6-oxa-3,9,13-triaza-hexadecanoyl)-4-hydroxy-N-(4-(4-methylthiazol-5-yl)benzyl)-pyrrolidine-2-carboxamide], the “T-AKT and P-AKT protein degradation” value in experiment [1] is “induced significant T-AKT and P-AKT protein degradation at concentrations of 5 and 10 μM”. In experiment [2], the “inhibition … P-PRAS40 and P-S6” value is listed as “less than GDC-0068”.
On to `Cc1ncsc1-c1ccc(CNC(=O)[C@@H]2C[C@@H](O)CN2C(=O)[C@@H](NC(=O)COCCOCCNC(=O)CCNC[C@@H](C(=O)N2CCN(c3ncnc4c3[C@H](C)C[C@H]4O)CC2)c2ccc(Cl)cc2)C(C)(C)C)cc1` [Compound 4, (2S,4R)-1-((2S,18S)-2-(tert-Butyl)-18-(4-chlorophenyl)-19-(4-((5R,7R)-7-hydroxy-5-methyl-6,7-dihydro-5H-cyclopenta[d]-pyrimidin-4-yl)piperazin-1-yl)-4,13,19-trioxo-6,9-dioxa-3,12,16-tri-azanonadecanoyl)-4-hydroxy-N-(4-(4-methylthiazol-5-yl)benzyl)-pyrrolidine-2-carboxamide], for which the “T-AKT and P-AKT protein degradation” value in experiment [1] was “less effective in AKT degradation”.
For `Cc1ncsc1-c1ccc(CNC(=O)[C@@H]2C[C@@H](O)CN2C(=O)[C@@H](NC(=O)CCCCNC(=O)CCNC[C@@H](C(=O)N2CCN(c3ncnc4c3[C@H](C)C[C@H]4O)CC2)c2ccc(Cl)cc2)C(C)(C)C)cc1` [Compound 6, (2S,4R)-1-((S)-2-(5-(3-(((S)-2-(4-Chlorophenyl)-3-(4-((5R,7R)-7-hydroxy-5-methyl-6,7-dihydro-5H-cyclopenta[d]pyrimidin-4-yl)-piperazin-1-yl)-3-oxopropyl)amino)propanamido)pentanamido)-3,3-dimethylbutanoyl)-4-hydroxy-N-(4-(4-methylthiazol-5-yl)-benzyl)pyrrolidine-2-carboxamide], the “T-AKT and P-AKT protein degradation” value in experiment [1] was “concentration-dependently reduced the protein levels of T-AKT and P-AKT”.
Regarding `Cc1ncsc1-c1ccc([C@H](C)NC(=O)[C@H]2C[C@H](O)CN2C(=O)[C@@H](NC(=O)CCCCCCCCCCC(=O)NCCNC[C@@H](C(=O)N2CCN(c3ncnc4c3[C@H](C)C[C@H]4O)CC2)c2ccc(Cl)cc2)C(C)(C)C)cc1` [Compound 61, N^1-(2-(((S)-2-(4-Chlorophenyl)-3-(4-((5R,7R)-7-hydroxy-5-methyl-6,7-dihydro-5H-cyclopenta[d]pyrimidin-4-yl)piperazin-1-yl)-3-oxopropyl)amino)ethyl)-N^12-((S)-1-((2R,4S)-4-hydroxy-2-(((S)-1-(4-(4-methylthiazol-5-yl)phenyl)ethyl)carbamoyl)pyrrolidin-1-yl)-3,3-dimethyl-1-oxobutan-2-yl)dodecanediamide], in experiment [1], the “extent of T-AKT degradation in concentration-response” value was “did not degrade T-AKT”.
On to `C[C@@H]1C[C@@H](O)c2ncnc(N3CCN(C(=O)[C@H](CNCCC(=O)NCCCCCCCCNc4cccc5c4C(=O)N(C4CCC(=O)N(C)C4=O)C5=O)c4ccc(Cl)cc4)CC3)c21` (stereo partly drawn) [Compound 62, 3-(((S)-2-(4-Chlorophenyl)-3-(4-((5R,7R)-7-hydroxy-5-methyl-6,7-dihydro-5H-cyclopenta[d]pyrimidin-4-yl)piperazin-1-yl)-3-oxopropyl)amino)-N-(8-((2-(1-methyl-2,6-dioxopiperidin-3-yl)-1,3-dioxoisoindolin-4-yl)amino)octyl)propenamide], for which the “extent of T-AKT degradation in concentration-response” value in experiment [1] is “did not degrade T-AKT”.
On to `Nc1cccc2c1C(=O)N(C1CCC(=O)NC1=O)C2=O` (centres unmarked) [POM, pomalidomide, reference compound], for which the “T-AKT protein level (western blot)” value in experiment [1] is on record as “no detectable effect on the T-AKT protein level”.
Same read-out and setting: as for `Cc1ncsc1-c1ccc(CNC(=O)[C@@H]2C[C@@H](O)CN2C(=O)[C@@H](N)C(C)(C)C)cc1` [VHL-1, reference compound], the entry is “no detectable effect on the T-AKT protein level”.
With “(2S,4R)-1-((2S,25S)-2-(tert-Butyl)-25-(4-chlorophenyl)-26-(4-((5R,7R)-7-hydroxy-5-methyl-6,7-dihydro-5H-cyclopenta[d]-pyrimidin-4-yl)piperazin-1-yl)-4,20,26-trioxo-7,10,13,16-tetraoxa-3,19,23-triazahexacosanoyl)-4-hydroxy-N-(4-(4-methylthiazol-5-yl)benzyl)pyrrolidine-2-carboxamide [Compound 5]”, in experiment [1], the “T-AKT and P-AKT protein degradation” value is “less effective in AKT degradation”.
